Literature values as cited in patent publication US20250000872A1, “FORMULATIONS AND DOSING REGIMENS FOR RIP1 KINASE INHIBITORS FOR TREATING AUTOIMMUNE AND INFLAMMATORY DISEASES” (Eli Lilly and Company, priority 2023, published 2025).

What was measured:
[1] = system: patients with mild-to-moderate active plaque-type psoriasis; conditions: 60 mg orally b.i.d. and 60 mg orally t.i.d.; cited from earlier work
UC = conditions: 60 mg orally t.i.d. for up to 84 days; cited from earlier work
[2] = modified release formulations, fasted state; not maintained with standard or high-fat meal; cited from earlier work
[3] = system: patients with moderate to severe RA; conditions: 60 mg orally b.i.d. and t.i.d. for up to 84 days; cited from earlier work

## CN1C(=O)[C@@H](NC(=O)c2nnc(Cc3ccccc3)[nH]2)COc2ccccc21 [GSK2982772, 5-Benzyl-N-[(3S)-5-methyl-4-oxo-2,3-dihydro-1,5-benzoxazepin-3-yl]-1H-1,2,4-triazole-3-carboxamide]
[1]
  clinical improvement over placebo: limited
UC
  histological disease activity or clinical efficacy compared with placebo: does not lead to differences
[2]
  GSK2982772 released over 12 h: 80%
[3]
  difference over placebo in disease activity, radiological progression, or inflammatory markers: No significant difference
